This is an account of results in US20200392158A1, “INHIBITORS OF LEUCINE RICH REPEAT KINASE 2” (GLAXOSMITHKLINE INTELLECTUAL PROPERTY DEVELOPMENT LIMITED, priority 2017, published 2020).

Experiment [1] deals with T1, full length G2019 human LRRK2 (Homo sapiens, UniProt Q5S007, R50H).
T1 construct: made in house; host or cells: HEK293 6E cells transduced with BacMam virus (virus generated in Sf9 cells)
As to the kind of experiment: Full length G2019 human LRRK2 inhibition mass spectrometry assay. In kind it is biochemical. The note with it: LRRKtide to phospho-LRRKtide conversion, RapidFire MS, 2 mM ATP. The procedure, abridged:
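Purified full-length Flag-tagged G2019 LRRK2, ~25 nM, with 25 μM LRRKtide and 2 mM ATP in 50 mM Hepes pH 7.2, 10 mM MgCl2, 150 mM NaCl, 1 h at room temperature. Quenched with formic acid; phospho- and unphosphorylated LRRKtide measured by RapidFire MS. pIC50 from 4-parameter fit of % conversion, 11 points, top 100 μM.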

Experiment [2] deals with T2, LRRK2 kinase in SH-SY5Y cells over-expressing recombinant full length LRRK2 (Homo sapiens, UniProt Q5S007).
T2 construct: A BacMam virus expressing full length recombinant LRRK2 was purchased from Invitrogen; host or cells: SH-SY5Y human neuroblastoma cells transduced with BacMam LRRK2 virus
As to the kind of experiment: Recombinant cellular LRRK2 AlphaScreen assay (LRRK2 Ser935 phosphorylation). The class given is cell-based. The following applies: 60 min. The procedure, abridged: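 SH-SY5Y cells transduced with BacMam full-length LRRK2 (MOI 50) for 24 h, then treated 60 min at 37 °C with compound (11-point 1:4 series, top 10 uM, 0.1% DMSO). Lysates probed by AlphaScreen for pSer935 vs total LRRK2; values fitted to a sigmoidal dose-response model.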

Structures are written as SMILES.

T1 sequence (Q5S007 with tags, fused parts or gaps R50H): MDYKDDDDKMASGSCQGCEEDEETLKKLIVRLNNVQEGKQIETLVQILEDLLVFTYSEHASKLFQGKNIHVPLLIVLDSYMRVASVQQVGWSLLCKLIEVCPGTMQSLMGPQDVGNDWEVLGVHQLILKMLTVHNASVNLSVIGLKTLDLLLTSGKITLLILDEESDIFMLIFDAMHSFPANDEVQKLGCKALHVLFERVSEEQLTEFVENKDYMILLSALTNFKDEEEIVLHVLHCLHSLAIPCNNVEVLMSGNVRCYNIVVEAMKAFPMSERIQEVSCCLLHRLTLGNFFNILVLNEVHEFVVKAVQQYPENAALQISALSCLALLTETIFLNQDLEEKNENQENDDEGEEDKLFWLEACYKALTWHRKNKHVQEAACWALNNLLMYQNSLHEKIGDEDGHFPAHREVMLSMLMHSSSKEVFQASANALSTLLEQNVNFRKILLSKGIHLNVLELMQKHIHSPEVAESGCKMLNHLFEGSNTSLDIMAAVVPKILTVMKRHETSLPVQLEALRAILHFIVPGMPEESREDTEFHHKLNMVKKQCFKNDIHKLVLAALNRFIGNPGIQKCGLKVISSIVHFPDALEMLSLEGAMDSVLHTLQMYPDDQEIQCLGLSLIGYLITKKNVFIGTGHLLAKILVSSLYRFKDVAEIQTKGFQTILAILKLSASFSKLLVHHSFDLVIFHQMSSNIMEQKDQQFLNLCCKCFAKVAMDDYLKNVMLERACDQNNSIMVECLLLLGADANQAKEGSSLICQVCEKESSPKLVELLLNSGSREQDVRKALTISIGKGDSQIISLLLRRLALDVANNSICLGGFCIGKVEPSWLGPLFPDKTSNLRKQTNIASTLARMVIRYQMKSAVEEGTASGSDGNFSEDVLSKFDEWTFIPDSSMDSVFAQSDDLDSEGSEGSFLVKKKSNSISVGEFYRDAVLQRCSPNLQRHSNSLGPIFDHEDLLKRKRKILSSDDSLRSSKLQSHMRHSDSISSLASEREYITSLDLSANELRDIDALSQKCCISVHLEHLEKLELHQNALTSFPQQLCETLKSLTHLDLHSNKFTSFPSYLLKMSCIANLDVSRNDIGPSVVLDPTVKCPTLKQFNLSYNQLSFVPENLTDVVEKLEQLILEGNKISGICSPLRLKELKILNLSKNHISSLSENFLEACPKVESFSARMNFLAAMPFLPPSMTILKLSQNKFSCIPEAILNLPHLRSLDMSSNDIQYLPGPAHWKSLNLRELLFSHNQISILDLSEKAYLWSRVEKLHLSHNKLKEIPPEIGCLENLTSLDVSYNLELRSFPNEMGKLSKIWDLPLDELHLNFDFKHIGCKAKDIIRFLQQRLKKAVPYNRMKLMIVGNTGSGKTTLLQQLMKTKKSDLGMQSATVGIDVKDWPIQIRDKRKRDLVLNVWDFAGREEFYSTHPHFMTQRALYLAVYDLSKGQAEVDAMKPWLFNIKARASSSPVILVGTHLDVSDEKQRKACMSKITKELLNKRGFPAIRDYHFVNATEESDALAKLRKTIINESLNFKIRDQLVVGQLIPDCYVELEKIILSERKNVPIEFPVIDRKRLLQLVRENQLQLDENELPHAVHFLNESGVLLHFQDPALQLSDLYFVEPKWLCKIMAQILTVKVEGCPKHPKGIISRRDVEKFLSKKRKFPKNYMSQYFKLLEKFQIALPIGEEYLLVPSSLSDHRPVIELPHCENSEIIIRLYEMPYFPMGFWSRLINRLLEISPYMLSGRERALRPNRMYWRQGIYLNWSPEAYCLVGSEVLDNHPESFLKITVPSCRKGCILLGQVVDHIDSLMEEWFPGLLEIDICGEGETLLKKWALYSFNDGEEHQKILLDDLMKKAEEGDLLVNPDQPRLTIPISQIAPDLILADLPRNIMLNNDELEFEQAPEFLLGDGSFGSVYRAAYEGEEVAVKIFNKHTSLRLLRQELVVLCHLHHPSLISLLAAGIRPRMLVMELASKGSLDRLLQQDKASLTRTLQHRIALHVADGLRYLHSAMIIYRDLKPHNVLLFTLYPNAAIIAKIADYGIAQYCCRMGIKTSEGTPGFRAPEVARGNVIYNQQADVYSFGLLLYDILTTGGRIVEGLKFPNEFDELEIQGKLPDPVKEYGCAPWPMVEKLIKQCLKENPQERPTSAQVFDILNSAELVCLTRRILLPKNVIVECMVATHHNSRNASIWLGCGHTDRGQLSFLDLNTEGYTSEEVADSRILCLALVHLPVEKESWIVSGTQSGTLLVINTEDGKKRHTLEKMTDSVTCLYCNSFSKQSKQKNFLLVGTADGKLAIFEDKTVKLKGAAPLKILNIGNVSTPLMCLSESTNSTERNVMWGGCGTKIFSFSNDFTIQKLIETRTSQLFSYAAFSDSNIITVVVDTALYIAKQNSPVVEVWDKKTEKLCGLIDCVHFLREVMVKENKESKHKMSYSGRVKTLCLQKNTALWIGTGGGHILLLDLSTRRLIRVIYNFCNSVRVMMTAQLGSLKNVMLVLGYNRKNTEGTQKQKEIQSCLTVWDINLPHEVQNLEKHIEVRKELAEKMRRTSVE
T2 sequence (Q5S007 whole entry): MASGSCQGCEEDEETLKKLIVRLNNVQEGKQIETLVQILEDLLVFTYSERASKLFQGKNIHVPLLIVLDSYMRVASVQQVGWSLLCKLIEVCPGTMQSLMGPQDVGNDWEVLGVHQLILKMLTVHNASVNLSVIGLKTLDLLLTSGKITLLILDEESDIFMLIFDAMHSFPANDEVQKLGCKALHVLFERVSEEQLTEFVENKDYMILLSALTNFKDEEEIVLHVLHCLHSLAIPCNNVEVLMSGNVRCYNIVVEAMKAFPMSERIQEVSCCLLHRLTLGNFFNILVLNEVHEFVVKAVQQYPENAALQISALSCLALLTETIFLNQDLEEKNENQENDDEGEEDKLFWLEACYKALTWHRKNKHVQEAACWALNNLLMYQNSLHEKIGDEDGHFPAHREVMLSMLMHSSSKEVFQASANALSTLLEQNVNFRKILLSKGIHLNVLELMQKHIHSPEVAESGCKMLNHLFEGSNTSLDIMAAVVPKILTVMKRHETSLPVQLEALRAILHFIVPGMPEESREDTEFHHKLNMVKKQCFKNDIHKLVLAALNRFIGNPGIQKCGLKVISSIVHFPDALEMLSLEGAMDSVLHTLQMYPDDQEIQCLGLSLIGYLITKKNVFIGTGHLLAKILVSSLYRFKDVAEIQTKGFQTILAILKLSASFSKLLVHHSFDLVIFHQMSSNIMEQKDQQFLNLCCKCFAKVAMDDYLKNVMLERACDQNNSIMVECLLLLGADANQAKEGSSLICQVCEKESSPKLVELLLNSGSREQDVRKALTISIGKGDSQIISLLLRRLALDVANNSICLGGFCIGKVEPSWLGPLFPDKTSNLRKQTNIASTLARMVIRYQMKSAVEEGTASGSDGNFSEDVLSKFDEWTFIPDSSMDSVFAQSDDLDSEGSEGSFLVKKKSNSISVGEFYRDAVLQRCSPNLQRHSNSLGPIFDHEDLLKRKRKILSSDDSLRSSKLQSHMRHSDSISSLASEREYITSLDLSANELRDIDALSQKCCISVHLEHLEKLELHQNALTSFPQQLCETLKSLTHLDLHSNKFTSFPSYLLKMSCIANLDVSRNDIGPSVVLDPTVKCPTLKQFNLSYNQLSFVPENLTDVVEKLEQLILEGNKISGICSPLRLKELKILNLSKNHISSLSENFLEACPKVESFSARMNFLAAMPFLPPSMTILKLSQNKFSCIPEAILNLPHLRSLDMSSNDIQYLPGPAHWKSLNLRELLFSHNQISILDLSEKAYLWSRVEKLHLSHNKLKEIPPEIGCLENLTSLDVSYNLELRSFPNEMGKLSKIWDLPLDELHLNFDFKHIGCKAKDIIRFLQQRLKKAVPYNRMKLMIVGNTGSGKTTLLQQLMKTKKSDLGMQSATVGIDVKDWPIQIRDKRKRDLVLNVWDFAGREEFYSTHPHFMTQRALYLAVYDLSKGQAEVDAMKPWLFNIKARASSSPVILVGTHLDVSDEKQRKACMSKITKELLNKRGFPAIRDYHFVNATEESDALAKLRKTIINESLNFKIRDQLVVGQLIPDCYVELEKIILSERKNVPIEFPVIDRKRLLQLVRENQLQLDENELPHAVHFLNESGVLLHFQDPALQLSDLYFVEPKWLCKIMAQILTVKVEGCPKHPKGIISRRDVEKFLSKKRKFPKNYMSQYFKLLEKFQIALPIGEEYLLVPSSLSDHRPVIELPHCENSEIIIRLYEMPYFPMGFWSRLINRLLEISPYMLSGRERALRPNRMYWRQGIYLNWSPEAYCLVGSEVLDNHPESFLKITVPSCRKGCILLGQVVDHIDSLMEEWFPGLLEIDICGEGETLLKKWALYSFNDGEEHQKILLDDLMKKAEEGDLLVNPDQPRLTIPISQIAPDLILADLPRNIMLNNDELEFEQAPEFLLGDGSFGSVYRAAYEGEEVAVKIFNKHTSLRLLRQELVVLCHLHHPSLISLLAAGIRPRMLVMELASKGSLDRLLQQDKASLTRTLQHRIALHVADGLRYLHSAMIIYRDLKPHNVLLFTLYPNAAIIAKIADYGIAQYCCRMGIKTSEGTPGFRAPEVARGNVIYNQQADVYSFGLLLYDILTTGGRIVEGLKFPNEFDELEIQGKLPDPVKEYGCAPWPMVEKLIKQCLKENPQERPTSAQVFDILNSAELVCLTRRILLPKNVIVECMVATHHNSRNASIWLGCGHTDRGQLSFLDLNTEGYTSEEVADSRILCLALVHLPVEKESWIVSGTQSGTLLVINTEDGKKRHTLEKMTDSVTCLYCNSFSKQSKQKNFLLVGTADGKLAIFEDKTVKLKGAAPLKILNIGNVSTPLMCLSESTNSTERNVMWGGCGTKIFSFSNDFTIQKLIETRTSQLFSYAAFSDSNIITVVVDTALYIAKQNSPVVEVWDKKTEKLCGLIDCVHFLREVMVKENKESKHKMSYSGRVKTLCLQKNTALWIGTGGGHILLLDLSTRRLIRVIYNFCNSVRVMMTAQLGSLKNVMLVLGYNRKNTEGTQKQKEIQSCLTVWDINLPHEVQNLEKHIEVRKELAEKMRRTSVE

On to `Cc1c2c(nn1C1CCOCC1)OCC(F)C(CF)Nc1nc(ncc1Cl)N2` (centres unmarked) [E391, 14-Chloro-10-fluoro-11-(fluoromethyl)-4-methyl-5-(oxan-4-yl)-8-oxa-2,5,6,12,16,17-hexaazatricyclo[11.3.1.0^3,7]heptadeca-1(16),3,6,13(17),14-pentaene], for which the IC50 in experiment [1] and in experiment [2] was at most 100 nM each time.
Consider `C[C@@H]1CCOc2n[nH]c(Cl)c2Nc2ncc(Cl)c(n2)N1` [E397, (11R)-4,14-Dichloro-11-methyl-8-oxa-2,5,6,12,16,17-hexaazatricyclo[11.3.1.0^3,7]heptadeca-1(16),3,6,13(17),14-pentaene], for which the IC50 in experiment [1] and in experiment [2] was at most 100 nM each time.
With `Cc1c2c(nn1C1CCC(N3C[C@@H]4C[C@H]3CO4)CC1)OCCC(C)Nc1nc(ncc1Cl)N2` (single isomer, unassigned) [E104], the concentration for half-maximal inhibition (IC50) in experiment [1] and in experiment [2] was at most 100 nM in each case.
As for `Cc1c2c(nn1C1COC1)OCC[C@@H](C)Nc1nc(ncc1Cl)N2` [E52, (11R)-14-chloro-4,11-dimethyl-5-(oxetan-3-yl)-8-oxa-2,5,6,12,16,17-hexaazatricyclo [11.3.1.0^3,7]heptadeca-1(16),3,6,13(17),14-pentaene], the half-inhibitory concentration (IC50) in experiment [1] and in experiment [2] was at most 100 nM throughout.
In the case of `Cc1c2c(nn1C1CC(F)CN(C3COC3)C1)OCC[C@@H](C)Nc1nc(ncc1Cl)N2` (stereo partly drawn) [E410, (11R)-14-Chloro-5-[5-fluoro-1-(oxetan-3-yl)piperidin-3-yl]-4,11-dimethyl-8-oxa-2,5,6,12,16,17 hexaazatricyclo[11.3.1.0^3,7] heptadeca-1(16),3,6,13(17),14-pentaene], the half-inhibitory concentration (IC50) in experiment [1] and in experiment [2] was at most 100 nM throughout.
As to `Cc1c2c(nn1C1CC(O)C1)OCC[C@@H](C)Nc1nc(ncc1Cl)N2` (stereo partly drawn) [E375, 3-[(11R)-14-Chloro-4,11-dimethyl-8-oxa-2,5,6,12,16,17-hexaazatricyclo[11.3.1.0^3,7]heptadeca-1(16),3,6,13(17),14-pentaen-5-yl]cyclobutan-1-ol], the IC50 in experiment [1] and in experiment [2] was at most 100 nM each time.
`Cc1c2c(nn1C1CCOCC1)OCCC(C)Nc1nc(ncc1C(F)(F)F)N2` (single isomer, unassigned) [E291, 4,11-Dimethyl-5-(oxan-4-yl)-14-(trifluoromethyl) -8-oxa-2,5,6,12,16,17-hexaazatricyclo[11.3.1.0^3,7]heptadeca-1(16),3,6,13(17),14-pentaene]: the half-inhibitory concentration (IC50) in experiment [1] and in experiment [2] was at most 100 nM in each case.
Consider `CCOC(=O)C(C)(C)n1nc2c(c1C)Nc1ncc(Cl)c(n1)NCCCO2` [E188], for which the concentration for half-maximal inhibition (IC50) in experiment [1] and in experiment [2] was at most 100 nM throughout.
As for `Cc1c2c(nn1C1COC1)OCCCNc1nc(ncc1Cl)N2` [E12, 14-Chloro-4-methyl-5-(oxetan-3-yl)-8-oxa-2,5,6,12,16,17-hexaazatricyclo[11.3.1.0^3,7]heptadeca-1(16),3,6,13(17),14-pentaene], the concentration for half-maximal inhibition (IC50) in experiment [1] and in experiment [2] was at most 100 nM in each case.
With `Cc1c2c(nn1C1CCOCC1)OCC[C@@H](C)Nc1nc(ncc1Cl)N2` [E6, (11R)-14-Chloro-4,11-dimethyl-5-(oxan-4-yl)-8-oxa-2,5,6,12,16,17-hexaazatricyclo [11.3.1.0^3,7]heptadeca-1(16),3,6,13(17),14-pentaene], the IC50 in experiment [1] and in experiment [2] was at most 100 nM throughout.
As to `Cc1c2c(nn1C1CCOCC1)OCCC(CF)Nc1nc(ncc1Cl)N2` (single isomer, unassigned) [E54, 14-chloro-11-(fluoromethyl)-4-methyl-5-(oxan-4-yl)-8-oxa-2,5,6,12, 16,17-hexaazatricyclo[11.3.1.0^3,7]heptadeca-1(16),3,6,13(17),14-pentaene], the IC50 in experiment [1] and in experiment [2] was at most 100 nM in each case.
For `Cc1c2c(nn1[C@H]1CCOC1)OCC[C@@H](C)Nc1nc(ncc1Cl)N2` [E46, (11R)-14-chloro-4,11-dimethyl-5-[(3S)-oxolan-3-yl]-8-oxa-2,5,6,12,16,17-hexaaza tricyclo [11.3.1.0^3,7]heptadeca-1(16),3,6,13(17),14-pentaene], the figures for the IC50 in experiment [1] and in experiment [2] were at most 10000 nM and at most 100 nM, respectively.
As for `COCCn1nc2c(c1C)Nc1ncc(Cl)c(n1)NCCCO2` [E116, 14-Chloro-5-(2-methoxyethyl)-4-methyl-8-oxa-2,5,6,12,16,17-hexaazatricyclo[11.3.1.0^3,7]heptadeca-1(16),3,6,13(17),14-pentaene], the IC50 in experiment [1] and in experiment [2] was at most 100 nM throughout.
In the case of `Cc1c2c(nn1C1CCC(C)CC1)OCCC(C)Nc1nc(ncc1Cl)N2` (single isomer, unassigned) [E259, 14-Chloro-4,11-dimethyl-5-(4-methylcyclohexyl)-8-oxa-2,5,6,12,16,17-hexaazatricyclo[11.3.1.0^3,7] heptadeca-1(16),3,6,13(17),14-pentaene], the concentration for half-maximal inhibition (IC50) in experiment [1] and in experiment [2] was at most 100 nM each time.
As to `Cc1c2c(nn1CC(C)(C)O)OCCC(C)Nc1nc(ncc1Cl)N2` (single isomer, unassigned) [E265, 1-{14-Chloro-4,11-dimethyl-8-oxa-2,5,6,12,16,17-hexaazatricyclo[11.3.1.0^3,7]heptadeca-1(17),3,6,13,15-pentaen-5-yl}-2-methylpropan-2-ol], the IC50 in experiment [1] and in experiment [2] was at most 100 nM each time.
As to `Cc1c2c(nn1C1CCN(C3CCOC3)CC1)OCC[C@@H](C)Nc1nc(ncc1Cl)N2` (stereo partly drawn) [E382, (11R)-14-Chloro-4,11-dimethyl-5-[1-(oxolan-3-yl)piperidin-4-yl]-8-oxa-2,5,6,12,16,17-hexaazatricyclo[11.3.1.0^3,7]heptadeca-1(16),3,6,13(17),14-pentaene], the IC50 in experiment [1] and in experiment [2] was at most 100 nM throughout.
On to `Cc1c2c(nn1C1CCOCC1F)OC[C@@H](F)[C@@H](C)Nc1nc(ncc1Cl)N2` (stereo partly drawn) [E387, (10S, 11R)-14-Chloro-10-fluoro-5-(3-fluorooxan-4-yl)-4,11-dimethyl-8-oxa-2,5,6,12,16,17-hexaazatricyclo[11.3.1.0^3,7] heptadeca-1(16),3,6,13(17),14-pentaene], for which the concentration for half-maximal inhibition (IC50) in experiment [1] and in experiment [2] was at most 100 nM in each case.
As for `CCc1c2c(nn1C1CCOCC1)OCC[C@@H](C)Nc1nc(ncc1Cl)N2` [E399, (11R)-14-Chloro-4-ethyl-11-methyl-5-(oxan-4-yl)-8-oxa-2,5,6,12,16,17-hexaazatricyclo[11.3.1.0^3,7]heptadeca-1(16),3,6,13(17),14-pentaene], the IC50 in experiment [1] and in experiment [2] was at most 100 nM throughout.
With `COC1CNc2nc(ncc2C(F)(F)F)Nc2c(nn(C3CCOCC3)c2C)OC1` (single isomer, unassigned) [E121, 10-methoxy-4-methyl-5-(oxan-4-yl)-14-(trifluoromethyl)-8-oxa-2,5,6,12,16,17-hexaazatricyclo[11.3.1.0^3,7] heptadeca-1(16),3,6,13(17),14-pentaene], the IC50 in experiment [1] and in experiment [2] was at most 100 nM throughout.
With `COC1CNc2nc(ncc2Cl)Nc2c(nn(CC3CCOCC3)c2C)OC1` (single isomer, unassigned) [E274, 14-Chloro-10-methoxy-4-methyl-5-(oxan-4-ylmethyl)-8-oxa-2,5,6,12,16,17-hexaazatricyclo[11.3.1.0^3,7] heptadeca-1(16),3,6,13(17),14-pentaene], the IC50 in experiment [1] and in experiment [2] was at most 100 nM throughout.
Regarding `Cc1[nH]nc2c1Nc1ncc(Cl)c(n1)NCCCO2` [E395, 14-Chloro-4-methyl-8-oxa-2,5,6,12,16,17-hexaazatricyclo [11.3.1.0^3,7]heptadeca-1(16),3,6,13(17),14-pentaene], the IC50 in experiment [1] and in experiment [2] was at most 100 nM in each case.
As to `Cc1c2c(nn1C1CCOCC1)OCC(C)CNc1nc(ncc1Cl)N2` (single isomer, unassigned) [E136, 14-chloro-4,10-dimethyl-5-(oxan-4-yl)-8-oxa-2,5,6,12,16,17-hexaazatricyclo[11.3.1.0^3,7]heptadeca-1(16),3,6,13(17),14-pentaene], the IC50 in experiment [1] and in experiment [2] was at most 100 nM each time.
As for `Cc1c2c(nn1C(C)C1CCOCC1)OCCC(C)Nc1nc(ncc1Cl)N2` (single isomer, unassigned) [E183, 14-Chloro-4,11-dimethyl-5-[1-(oxan-4-yl)ethyl]-8-oxa-2,5,6,12,16,17-hexaazatricyclo[11.3.1.0^3,7]heptadeca-1(16),3,6,13(17),14-pentaene], the IC50 in experiment [1] and in experiment [2] was at most 100 nM in each case.
Turning to `COC1CNc2nc(ncc2Cl)Nc2c(nn(C3CCC(C(F)(F)F)CC3)c2C)OC1` (single isomer, unassigned) [E278, 14-Chloro-10-methoxy-4-methyl-5-[4-(trifluoromethyl)cyclohexyl]-8-oxa-2,5,6,12,16,17-hexaazatricyclo [11.3. 1.0^3,7]heptadeca-1(16),3,6,13(17),14-pentaene], the IC50 in experiment [1] and in experiment [2] was at most 100 nM throughout.
For `Cc1c2c(nn1C1CN(C3CCOCC3)C1)OCC[C@@H](C)Nc1nc(ncc1Cl)N2` [E365, (11R)-14-Chloro-4,11-dimethyl-5-[1-(oxan-4-yl)azetidin-3-yl]-8-oxa-2,5,6,12,16,17-hexaazatricyclo[11.3.1.0^3,7]heptadeca-1(16), 3,6,13(17),14-pentaene], the IC50 in experiment [1] and in experiment [2] was at most 100 nM throughout.

Usually IC50 stands for the concentration needed to halve the response being measured.
